# Source: patent publication US4260612A, “Antiallergic nitrogen bridge-head compounds” (Chinoin Gyogyszer es Vecyeszeti Termekek Gyara Rt., priority 1977, dated 1981)
# How the values were obtained:
# allergic symptoms = details: orally; background statement; cited from earlier work
# allergic reactions = assay: PCA test (antiallergic activity, rats); assay type: in vivo; details: for ED50: Rattus norvegicus, iv; for ED50 / percental activity in the PCA test: rats
# Description: (§1) The tests were carried out by the PCA test-method (Ovary: J. Immun. 81, 355, 1958) and the Church-test (British J. Pharm. 46, 56-66, 1972; Immunology 29, 527-534, 1975) and as comparing substance disodium chromoglycate is used. The test is carried out in rats.
# histamine = assay: Released histamine in vitro (antiallergic tests incl. Church-test); assay type: cell-based, rats; details: Rattus norvegicus; read-out: Released histamine in vitro, ED50
# Description: as §1
SMILES,oral activity of antiasthmatic agent (allergic symptoms),ED50 (allergic reactions),"route dependence / oral activity (allergic reactions; oral versus i.v., words)",IC50 (histamine),percental activity in the PCA test (allergic reactions; single i.v. dose of 10 μmole/kg),percental activity in the PCA test (allergic reactions; single i.v. dose of 320 μmole/kg)
"O=C(O)c1cc(=O)c2c(OCC(O)COc3cccc4oc(C(=O)O)cc(=O)c34)cccc2o1 [disodium chromoglycolate, reference compound]",not active orally,1 µmol/kg,effective only when administered intravenously,–,–,–
"CC1CC=C(Nc2ccccc2)c2ncc(C(=O)O)c(=O)n21 (stereo not shown) [Example 1, 9-(phenyl-amino)-6-methyl-4-oxo-6,7-dihydro-4H-pyrido[1,2-a]pyrimidine-3-carboxylic acid]",–,1.3 µmol/kg,–,12.3 µM,60%,100%
